Reference: article PMC5979572, “Imine Deaminase Activity and Conformational Stability of UK114, the Mammalian Member of the Rid Protein Family Active in Amino Acid Metabolism” (International Journal of Molecular Sciences, 2018)

Legend:
UK114 = target: T1, UK114 (Capra hircus, UniProt P80601); test: decrease of semicarbazone formation rate, […] nm, imino acid generated in situ; type: biochemical; details: 50 mM sodium pyrophosphate pH 8.7, 25 °C, 10 mM semicarbazide, catalase
T1 construct: gene RIDA; full length 137 residues, recombinant from E. coli (pET-15b), N-terminal His-tag cut by thrombin leaving GSH before Met1; homotrimer
T1 sequence (P80601 1-137): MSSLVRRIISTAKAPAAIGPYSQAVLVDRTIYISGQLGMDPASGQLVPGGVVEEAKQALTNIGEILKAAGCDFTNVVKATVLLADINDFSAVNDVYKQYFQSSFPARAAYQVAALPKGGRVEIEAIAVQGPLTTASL

[1] = target: T2, D-amino acid oxidase (DAAO) (Sus scrofa, UniProt P00371); test: H2O2 production (HRP / o-dianisidine) and semicarbazone formation; type: biochemical; details: 50 mM sodium pyrophosphate pH 8.7, 25 °C
T2 construct: gene DAO; native, purified from pig kidneys

[2] = target: the molecule itself; test: SEC; analytical gel filtration on a calibrated Superdex 75 (10/30) column equilibrated with 0.9% NaCl; standards BSA dimer, BSA monomer, carbonic anhydrase, cytochrome c

T2 sequence (P00371 whole entry): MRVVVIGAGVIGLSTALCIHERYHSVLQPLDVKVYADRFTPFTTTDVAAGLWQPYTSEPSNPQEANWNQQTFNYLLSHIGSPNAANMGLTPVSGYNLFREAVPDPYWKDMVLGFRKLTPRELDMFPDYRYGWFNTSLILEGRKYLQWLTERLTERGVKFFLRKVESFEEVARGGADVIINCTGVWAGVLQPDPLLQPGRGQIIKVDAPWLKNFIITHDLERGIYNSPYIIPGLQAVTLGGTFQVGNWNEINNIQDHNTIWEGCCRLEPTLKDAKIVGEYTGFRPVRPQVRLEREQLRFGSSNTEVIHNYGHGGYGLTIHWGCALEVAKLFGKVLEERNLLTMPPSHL

Molecule: CC(=N)C(=O)O [2-iminopropionate]
- decrease of semicarbazone formation rate, 248 nm, imino acid generated in situ (UK114; imino acid from 5 mM L-Ala + LAAO or D-Ala + DAAO): the highest specificity is indeed observed with 2-iminopyruvate (2-iminopropionate)

Molecule: CC(C)C[C@@H](N)C(=O)O [D-Leu]
- H2O2 production (HRP / o-dianisidine) and semicarbazone formation [1]: Semicarbazone formation was observed using D-Ala, D-Leu, but not D-Ser, D-Thr, or D-Lys

Molecule: CC(C)CC(=N)C(=O)O [imino acid derived from Leu]
- decrease of semicarbazone formation rate, 248 nm, imino acid generated in situ (UK114; imino acid from 5 mM L-Leu + LAAO or D-Leu + DAAO): UK114 activity using the imino acid produced by DAAO from D-Leu was indistinguishable

B1: recombinant goat UK114 (Capra hircus), thrombin-cleaved (enzyme, Capra hircus (goat))
chain: GSHMSSLVRRIISTAKAPAAIGPYSQAVLVDRTIYISGQLGMDPASGQLVPGGVVEEAKQALTNIGEILKAAGCDFTNVVKATVLLADINDFSAVNDVYKQYFQSSFPARAAYQVAALPKGGRVEIEAIAVQGPLTTASL
notes: they precede the initiator methionine of UK114; also called RidA; not shown: His6, N-terminal, cleaved
- stoichiometry N [2]: 3
